Laboratory results reported in patent publication US10000471B2, “Pyrazole P38 map kinase inhibitors” (Respivert Limited, priority 2010, dated 2018).

How the values were obtained:
[1] = system: TNFα release in d-U937 cells; test: LPS-induced TNFα release in d-U937 cells; type: cell-based, human; settings: Homo sapiens, dU937, relative to 10 μg/mL BIRB796, read-out: LPS/TNFα REC50 d-U937
Method: (§1) LPS-Induced TNFα/IL-8 Release in d-U937 Cells
(§2) U937 cells, a human monocytic cell line, were differentiated to macrophage-type cells by incubation with phorbol myristate acetate (PMA; 100 ng/ml) for 48 to 72 hr. Cells were pre-incubated with final concentrations of test compound for 2 hr and were then stimulated with 0.1 μg/mL of LPS (from E. Coli: O111:B4, Sigma) for 4 hr. The supernatant was collected for determination of TNFα and IL-8 concentrations by sandwich ELISA (Duo-set, R&D systems). The inhibition of TNFα production was calculated as a percentage of that achieved by 10 μg/mL of BIRB796 at each concentration of test compound by comparison against vehicle control. The relative 50% effective concentration (REC50) was determined from the resultant concentration-response curve. The inhibition of IL-8 production was calculated at each concentration of test compound by comparison with vehicle control. The 50% inhibitory concentration (IC50) was determined from the resultant concentration-response curve.

[2] = system: IL-8 release in d-U937 cells; test: LPS-induced IL-8 release in d-U937 cells; type: cell-based, human; settings: Homo sapiens, dU937
Method: as §1, §2

p38 MAPKγ (MAPK12) = target: T1, p38 MAPKγ (MAPK12) (Homo sapiens, UniProt P53778); test: Enzyme inhibition assay (FRET, Z-LYTE), p38 MAPKγ; type: biochemical; settings: read-out: Enzyme Inhibition IC50 p38γ
T1 construct: purchased Invitrogen
T1 sequence (P53778 1-367): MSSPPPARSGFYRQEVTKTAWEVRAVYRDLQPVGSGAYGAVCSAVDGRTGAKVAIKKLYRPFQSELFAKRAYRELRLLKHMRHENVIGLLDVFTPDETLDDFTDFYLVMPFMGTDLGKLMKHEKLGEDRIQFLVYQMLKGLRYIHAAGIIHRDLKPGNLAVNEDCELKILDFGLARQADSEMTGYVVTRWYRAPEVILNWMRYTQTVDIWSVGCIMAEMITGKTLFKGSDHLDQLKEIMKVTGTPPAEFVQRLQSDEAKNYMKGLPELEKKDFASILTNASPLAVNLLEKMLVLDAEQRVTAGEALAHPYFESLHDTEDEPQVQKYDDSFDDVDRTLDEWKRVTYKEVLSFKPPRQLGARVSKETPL
Method: (§3) The enzyme inhibitory activities of compounds disclosed herein were determined by fluorescence resonance energy transfer (FRET) using synthetic peptides labelled with both donor and acceptor fluorophores (Z-LYTE, Invitrogen Ltd., Paisley, UK). Recombinant, phosphorylated p38 MAPKγ (MAPK12:Invitrogen) was diluted in HEPES buffer, mixed with the test compound at the desired final concentrations and incubated for 2 hr at RT. The FRET peptide (2 μM) and ATP (100 μM) were added to the enzyme/compound mixture and incubated for 1 hr. Development reagent (protease) was added for 1 hr prior to detection in a fluorescence microplate reader (Varioskan® Flash, ThermoFisher Scientific). The site-specific protease cleaves non-phosphorylated peptide only and eliminates the FRET signal. Phosphorylation levels of each reaction were calculated using the ratio of coumarin emission (donor) over fluorescein emission (acceptor) for which high ratios indicate high phosphorylation and low ratios indicate low phosphorylation levels. The percentage inhibition of each reaction was calculated relative to non-inhibited control and the 50% inhibitory concentration (IC50 value) then calculated from the concentration-response curve.

[3] = target: T2, p38 MAPKα isoform (MAPK14) (Homo sapiens, UniProt Q16539); test: Enzyme inhibition assay (FRET, Z-LYTE), p38 MAPKα via MAPKAP-K2 activation; type: biochemical; settings: read-out: Enzyme Inhibition IC50 p38α
T2 construct: purchased Invitrogen
T2 sequence (Q16539 whole entry, canonical isoform): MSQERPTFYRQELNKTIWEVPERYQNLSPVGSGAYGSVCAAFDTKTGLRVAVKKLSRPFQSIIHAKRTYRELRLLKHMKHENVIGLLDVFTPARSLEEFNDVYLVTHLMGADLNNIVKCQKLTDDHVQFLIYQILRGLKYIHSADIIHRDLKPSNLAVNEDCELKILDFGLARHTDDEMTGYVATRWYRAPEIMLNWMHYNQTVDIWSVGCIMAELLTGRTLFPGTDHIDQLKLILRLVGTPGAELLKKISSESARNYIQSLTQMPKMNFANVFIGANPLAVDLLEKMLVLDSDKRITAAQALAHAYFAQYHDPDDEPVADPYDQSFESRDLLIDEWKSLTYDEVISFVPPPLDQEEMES
Method: as §3
For the p38 MAPKα isoform (MAPK14: Invitrogen), enzyme activity was evaluated indirectly by determining the level of activation/phosphorylation of the down-stream molecule, MAPKAP-K2. The p38 MAPKα protein was mixed with the test compound for 2 hr at RT. […] Development reagent was then added and the mixture incubated for 1 hr before detection by fluorescence completed the assay protocol.

[4] = system: Differentiated U937 cells; test: Cell viability MTT assay; type: cell-based, human; settings: negative = apparent increase in viability; for MTT Assay (Viability) 4 h d-U937, percentage loss of cell viability: 4 hr in 5% FCS; for MTT Assay (Viability) 24 h d-U937, percentage loss of cell viability: 24 h in 10% FCS
Method: Differentiated U937 cells were pre-incubated with each test compound under two protocols: the first for 4 hr in 5% FCS and the second in 10% FCS for 24 h. The supernatant was replaced with 200 μL of new media and 10 μL of MTT stock solution (5 mg/mL) was added to each well. After incubation for 1 hr the media were removed, 200 μL of DMSO was added to each well and the plates were shaken lightly for 1 hr prior to reading the absorbance at 550 nm. The percentage loss of cell viability was calculated for each well relative to vehicle (0.5% DMSO) treatment. Consequently an apparent increase in cell viability for drug treatment relative to vehicle is tabulated as a negative percentage.

[5] = system: TNFα release in THP-1 cells; test: LPS-induced TNFα release in THP-1 cells; type: cell-based, human; settings: Homo sapiens
Method: LPS-Induced TNFα Release in THP-1 Cells
THP-1 cells, a human monocytic cell line, were stimulated with 3 μg/mL of LPS (from E. Coli; 0111:B4, Sigma) for 4 hr and the supernatant collected for determination of the TNFα concentration by sandwich ELISA (Duo-set, R&D systems). The inhibition of TNFα production was calculated at each concentration by comparison with vehicle control. The 50% inhibitory concentration (IC50) was determined from the resultant concentration-response curve.

[6] = system: ICAM-1 induction in BEAS2B cells; test: Poly I:C-induced ICAM-1 induction in BEAS2B cells; type: cell-based, human; settings: Homo sapiens, BEAS-2B, read-out: PolyIC/ICAM1 IC50 BEAS2B
Method: Poly I:C-Induced ICAM-1 Induction in BEAS2B Cells
Poly I:C (1 μg/mL) (Invivogene Ltd., San Diego, Calif.) was transfected into BEAS2B cells (human bronchial epithelial cells, ATCC) with Oligofectamine (Invitrogen, Carlsbad, Calif.). Cells were pre-incubated with final concentrations of test compounds for 2 hr and the level of ICAM1 expression on the cell surface was determined by cell-based ELISA. At a time point 18 hr after poly I:C transfection, cells were fixed with 4% formaldehyde in PBS and then endogenous peroxidase was quenched by the addition of 0.1% sodium azide and 1% hydrogen peroxide. Cells were washed with wash-buffer (0.1% Tween in PBS: PBS-Tween). and after blocking the wells with 5% milk in PBS-Tween for 1 hr, the cells were incubated with anti-human ICAM-1 antibody (Cell Signaling Technology, Danvers, Mass.) in 1% BSA PBS overnight at 4° C. The cells were washed with PBS-Tween and incubated with the secondary antibody (HRP-conjugated anti-rabbit IgG, Dako Ltd., Glostrup, Denmark). The ICAM-1 signal was detected by adding substrate and reading the absorbance at 450 nm against a reference wavelength of 655 nm using a spectrophotometer. The cells were then washed with PBS-Tween and total cell numbers in each well were determined by reading absorbance at 595 nm after Crystal Violet staining and elution by 1% SDS solution. The measured OD 450-655 readings were corrected for cell number by dividing with the OD595 reading in each well. The inhibition of ICAM-1 expression was calculated at each concentration of test compound by comparison with vehicle control. The 50% inhibitory concentration (IC50) was determined from the resultant concentration-response curve.

Structure (SMILES)	EC50 [1]	IC50 [2]	IC50 (p38 MAPKγ (MAPK12))	IC50 [3]	IC50 [5]	MTT Assay (Viability) 4 h d-U937, percentage loss of cell viability [4]	MTT Assay (Viability) 24 h d-U937, percentage loss of cell viability [4]	IC50 [6]
CC(C)(C)c1cc(NC(=O)Nc2ccc(Oc3ccnc(NC(=O)NCCN4CCOCC4)c3)c(Cl)c2Cl)n(-c2ccc(CO)cc2)n1 [Example 71, 1-(4-(4-(3-(3-tert-butyl-1-(4-hydroxymethylphenyl)-1H-pyrazol-5-yl)ureido)-2,3-dichlorophenoxy)pyridin-2-yl)-3-(2-morpholinoethyl) urea]	1.1 nM	1.4 nM	60.4 nM	19.4 nM	0.7 nM	−20.5%	84.3%	1.9 nM
COCC(=O)Nc1cc(Oc2ccc(NC(=O)Nc3cc(C(C)(C)C)nn3-c3cccc(CO)c3)c(Cl)c2Cl)ncn1 [Example 92, N-(6-(4-(3-(3-tert-butyl-1-(3-hydroxymethylphenyl)-1H-pyrazol-5-yl)ureido)-2,3-dichlorophenoxy)pyrimidin-4-yl)-2-methoxyacetamide]	0.9 nM	9.9 nM	165 nM	25.8 nM	14.2 nM	−14.4%	81.0%	1.9 nM
CNC(=O)Nc1cc(Oc2ccc(NC(=O)Nc3cc(C(C)(C)C)nn3-c3ccc(C)cc3)c3ncccc23)ccn1 [Example 56, 1-(3-tert-butyl-1-p-tolyl-1H-pyrazol-5-yl)-3-(5-(2-(3-methylureido)pyridin-4-yloxy)quinolin-8-yl)urea]	0.9 nM	4.6 nM	194 nM	52.4 nM	8.6 nM	−25.5%	−28.0%	12.3 nM
CNC(=O)Nc1cc(Oc2ccc(NC(=O)Nc3cc(C(C)(C)C)nn3-c3ccc(CO)c(OC)c3)c(Cl)c2Cl)ccn1 [Example 53, 1-(3-tert-butyl-1-(4-hydroxymethyl-3-methoxy-phenyl)-1H-pyrazol-5-yl)-3-(2,3-dichloro-4-(2-(3-methylureido)pyridin-4-yloxy)phenyl)urea]	1.3 nM	7.7 nM	35.8 nM	46.9 nM	1.8 nM	−1.1%	87.8%	2.2 nM

Continued by falling EC50 [1], values first:

EC50 [1]	IC50 [2]	IC50 (p38 MAPKγ (MAPK12))	IC50 [3]	IC50 [5]	Structure (SMILES)	MTT Assay (Viability) 4 h d-U937, percentage loss of cell viability [4]	MTT Assay (Viability) 24 h d-U937, percentage loss of cell viability [4]	IC50 [6]
16200 nM	17100 nM	> 16400 nM	54.2 nM	> 1640 nM	COCC(=O)Nc1cc(COc2ccc(NC(=O)Nc3cc(C(C)(C)C)nn3-c3ccc(OC)cc3)c3cccnc23)ccn1 [Example 17, N-(4-((5-(3-(3-tert-Butyl-1-(4-methoxyphenyl)-1H-pyrazol-5-yl)ureido)quinolin-8-yloxy)methyl)pyridin-2-yl)-2-methoxyacetamide]	−11.5%	4.0%	> 1640 nM
1.6 nM	1.9 nM	198 nM	125 nM	2 nM	CNC(=O)Nc1cc(Oc2ccc(NC(=O)Nc3cc(C(C)(C)C)nn3-c3ccc(C(=O)OC)cc3)c(Cl)c2Cl)ccn1 [Example 59, methyl 4-(3-tert-butyl-5-(3-(2,3-dichloro-4-(2-(3-methylureido)pyridin-4-yloxy)phenyl)ureido)-1H-pyrazol-1-yl)benzoate]	−24.8%	0.0%	0.9 nM
1.3 nM	19.2 nM	160 nM	8.9 nM	0.8 nM	COCC(=O)Nc1cc(Oc2ccc(NC(=O)Nc3cc(C(C)(C)C)nn3-c3ccc(CO)cc3)c(Cl)c2Cl)ncn1 [Example 93, N-(6-(4-(3-(3-tert-butyl-1-(4-hydroxymethylphenyl)-1H-pyrazol-5-yl)ureido)-2,3-dichlorophenoxy)pyrimidin-4-yl)-2-methoxyacetamide]	−1.4%	91.5%	0.5 nM
0.3 nM	11.4 nM	140 nM	28.9 nM	0.5 nM	Cc1ccc(-n2nc(C(C)(C)C)cc2NC(=O)Nc2ccc(Oc3ccnc(NC(=O)N(C)C)c3)c(Cl)c2Cl)cc1 [Example 63]	−29.7%	51.6%	3 nM
0.3 nM	11.9 nM	47.9 nM	15.7 nM	2.2 nM	COCC(=O)Nc1nccc(Oc2ccc(NC(=O)Nc3cc(C(C)(C)C)nn3-c3ccc(OC)cc3)c(Cl)c2Cl)n1 [Example 23, N-(4-(4-(3-(3-tert-Butyl-1-(4-methoxyphenyl)-1H-pyrazol-5-yl)ureido)-2,3-dichlorophenoxy)pyrimidin-2-yl)-2-methoxyacetamide]	−37.1%	−24.5%	2 nM
